GI50 and TGI data for twelve molecules are collected here from PubChem BioAssay (NCI).

Common to all, as to test: inhibition of tumour cell growth, NCI panel, 48 h
Test [1] concerns BT-549 breast.
Test [2] has as its system HL-60(TB) leukemia.
Test [3] deals with K-562 leukemia.
Test [4] has as its system LOX IMVI melanoma.
The subject of test [5] is M14 melanoma.
In test [6] the test system is MOLT-4 leukemia.
The subject of test [7] is NCI-H522 lung.
Test [8] has as its system SNB-19 CNS.
The subject of test [9] is UACC-62 melanoma.
Test [10] has as its system HOP-62 NSCLC.

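48-hour exposure; five concentrations; linearly interpolated endpoints. The concentration for 50% growth inhibition is given as GI50. TGI is the concentration that stops growth completely.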

On to `COc1ccc2c(c1)C(=O)c1c-2n(CCCCl)c(=O)c2cc([N+](=O)[O-])ccc12`, for which the GI50 was 1560 nM in [1]; under 37 nM in test [2]; under 10 nM in test [4]; under 21.1 nM in test [6]; under 26.5 nM in test [7]; under 50.5 nM in [8]. For the same molecule, the TGI in [1] is over 100 µM; in test [2], 0.147 µM; in test [3], over 100 µM; in test [4], 0.111 µM; in test [5] it was 0.361 µM; in test [7] it was 0.963 µM. For the same molecule, the TGI in test [8] is over 100 µM; in test [9] it was 1.81 µM.

Turning to `CCCCC1CCCCCCc2[nH]c(/C=C3\N=C(c4ccc[nH]4)C=C3OC)cc21` (stereo not drawn), the TGI in [1] is 1.29 µM; in test [2], 0.0103 µM; in test [10], 0.94 µM; in test [3], 1.28 µM; in test [6] it was 0.0443 µM; in test [7], 1.38 µM. The TGI in test [8] is 8.65 µM; in [9], under 0.0177 µM.

As to `CC1(C)CCCC2(C)C3=C(CCC12)C(=O)OC3` (stereo not drawn), the TGI in test [1] was over 100 µM; in test [2], 67.9 µM; in test [10] it was over 100 µM; in test [4] it was over 100 µM; in [5], over 100 µM; in test [6] it was over 100 µM. The TGI in test [7] and in test [9] was over 100 µM each time.

For `COc1ccc(C(=O)NNC(=O)c2nsc3ccccc23)cc1`, the TGI in [2] was 82.5 µM; in [10], over 100 µM; in test [3], over 100 µM; in test [4], over 100 µM; in test [5], over 100 µM; in test [6], over 100 µM. The TGI in test [8] and in [9] was over 100 µM in each case.

For the molecule `CCc1cc(C)cc2[n+]1CC=C2C`, the TGI in [2], in test [10], in test [4], in [5], in [7] and in [8] was over 100 µM in each case.

As to `COC(=O)C12OCC34C(CC5C(C)C6=CC(=O)OC6=CC5(C)C3C(O)C1O)OC(=O)C(OC(C)=O)C24` (stereo not drawn), the TGI in test [2] was 33.3 µM; in test [10], 53.2 µM; in test [3], 54.3 µM; in [4], 37 µM; in test [5] it was 32.8 µM; in [6] it was 45.6 µM. Besides, the TGI in test [7] was 24.6 µM; in test [8], over 91 µM; in test [9] it was 21.9 µM.

Take `CCCCCCCCCCCCCCC(C(=O)[O-])[n+]1ccccc1` (stereo not drawn): the TGI in test [1], in [2], in test [10], in test [3], in test [4] and in test [5] was over 100 µM in each case. Moreover, the TGI in test [6], in test [7], in test [8] and in [9] was over 100 µM throughout.

Consider `NCc1ccc(O)c(O)c1O`, for which the TGI in test [1] is 34.2 µM; in test [2], 59.1 µM; in test [10], over 73.9 µM; in [3], 60.6 µM; in [4], 32 µM; in [5] it was 27.7 µM. Also, the TGI is 64.9 µM in test [6], over 90.9 µM in [7], over 97.3 µM in [8] and over 67.3 µM in test [9].

In the case of `Cc1nc2ccccc2c(=O)n1Nc1ccc(C(=O)O)cc1`, the TGI in test [2], in test [10], in test [3], in [4], in [6] and in test [7] was over 100 µM throughout. In addition, the TGI in [8] and in test [9] was over 100 µM each time.

As for `O=C(Nc1ccc(-n2ccc3c(NC(=O)c4ccccc4)ncnc32)cc1)Nc1ccc(Cl)c(C(F)(F)F)c1`, the GI50 in test [2] was 2920 nM; in test [10], 2160 nM; in test [3], 1450 nM; in [4], 2000 nM; in [5], 1660 nM; in test [6], 1870 nM. The GI50 in test [7] was 1070 nM; in test [8] it was 2430 nM; in test [9] it was 1900 nM. In addition, the TGI in test [2] turned out to be 6.93 µM; in test [10], 4.45 µM; in [3] it was 5.04 µM; in test [4], 6.77 µM; in test [5], 3.64 µM; in test [6] it was 4.82 µM. Further, the TGI in test [7] stood at 2.89 µM; in test [8], 7.18 µM; in [9], 4.59 µM.

As for `O=C1CC(c2ccccc2)NCCCCN2CC(CN1)C(C(O)c1ccccc1)C2=O` (stereo not drawn), the TGI in test [1], in test [2], in [10], in test [4], in [5] and in [6] was over 100 µM throughout. Moreover, the TGI in test [7], in [8] and in test [9] was over 100 µM each time.

For `Nc1ccc([As](=O)(O)O)cc1`, the TGI in test [1], in test [2], in [10], in test [3], in test [4] and in test [5] was over 100 µM throughout. For the same molecule, the TGI in test [6], in test [7], in test [8] and in [9] was over 100 µM throughout.
